Source: US20210171576A1, “METHODS FOR TREATING CANCER WITH ACYLDEPSIPEPTIDE ANALOGS” (priority 2018, published 2021)
One block for each compound: values may come before it. Where a SMILES comes first, the peptide text is derived from it. Bridges are numbered along the chain shown (N, C = ends). [ ]: non-standard residue; d: D form. The star is where a group is joined. Phe(3,5-F2) = N[C@@H](Cc1cc(F)cc(F)c1)C(=O)O; Pip(4S-Me) = C[C@H]1CCN[C@H](C(=O)O)C1; Hexadienoyl(2E,4E) = C/C=C/C=C/C(=O)*; Pro(4R-Me) = C[C@H]1CN[C@H](C(=O)O)C1; Bta = N[C@@H](Cc1csc2ccccc12)C(=O)O; Heptenoyl(2E) = CCCC/C=C/C(=O)*; aThr = C[C@H](O)[C@H](N)C(=O)O; Pip = O=C(O)[C@@H]1CCCCN1; NMeA = CN[C@@H](C)C(=O)O; X1 = CCC/C=C/C=C/C(=O)*; X11 = O=C(/C=C/C=C/CO)*; X3 = O=C(/C=C/CC1CC1)*; X10 = CCCC#CC(=O)*; X9 = CCCCC#CC(=O)*

How the values were obtained:
[1] = molecular target: T1, human mitochondrial CIpP (HsCIpP) (Homo sapiens, UniProt Q16740); assay: Screen of ADEP analogs against HsCIpP: relative degradation (RD) index, casein-FITC degradation relative to E. coli CIpAP; assay type: biochemical; design: key: casein-FITC degradation by HsClpP relative to EcClpAP; conditions: for Hs RD1: RD value at 1 μM of the ADEP analog; for Hs RD5: RD value at 5 μM of the ADEP analog; for Hs RD25: RD value at 25 μM of the ADEP analog, measure of ability to activate HsCIpP
T1 construct: made in house; host or cells: E. coli SG1146 (BL21(DE3) ΔclpP::cat)
T1 sequence (Q16740 57-277): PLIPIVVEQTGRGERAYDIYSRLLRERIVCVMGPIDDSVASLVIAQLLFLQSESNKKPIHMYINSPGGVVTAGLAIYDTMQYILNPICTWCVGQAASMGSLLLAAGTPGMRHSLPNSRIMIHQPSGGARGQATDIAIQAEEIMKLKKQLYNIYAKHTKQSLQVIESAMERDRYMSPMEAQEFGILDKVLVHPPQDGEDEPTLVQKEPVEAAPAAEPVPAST
From the text: Structural analogs of acyldepsipeptide (ADEP) (Goodreid et al., 2016) that were previously developed as potential antibiotics against bacterial CIpP were screened and assessed for their ability to activate and dysregulate the protease activity of HsCIpP, by measuring their relative degradation (RD) index. Note that ADEP-28 was also previously reported by Carney et al. (2014). Details of the experimental protocol have been described in Leung et al., 2011. The RD index is defined as follows: […]
Δφ is the change in fluorescence after 6 hr of starting the reaction measured using 485 nm excitation and 535 nm emission, which primarily detects the signal from casein-FITC. E. coli CIpAP was used as a benchmark for maximum CIpP proteolytic activity. The CIpP in the numerator can be from any other organism. RD25 measurements refer to the measurement in the presence of 25 μM compound. All ADEP analogs were first screened at 25 μM, and their RD25 scores were calculated using the above formula and method as described in Leung et al., 2011 (FIG. 1A). Those that achieved RD25≥0.87 were screened a second time at 5 μM, followed by calculation of their RD5 scores. The top analogs with RD5≥0.74 were screened a third time at 1 μM, followed by calculation of their RD1 scores (FIG. 1B).
To identify ADEP analogs that allow HsCIpP to degrade folded proteins independent of HsCIpX+ATP (i.e., that activate or dysregulate HsCIpP), the inventors employed the in vitro screening method that was used for identifying small molecule activators of Escherichia coli CIpP (EcCIpP) (Leung et al., 2011). In this approach, the ability of HsCIpP to degrade FITC-labeled casein (casein-FITC) was measured and compared to the ability of EcCIpAP to degrade casein-FITC. This is quantitatively expressed as relative degradation (RD) index (Leung et al., 2011).

HsCIpP [2] = molecular target: T2, HsCIpP (Homo sapiens, UniProt Q16740, P57S); assay: Peptidase activity assay (Ac-WLA-AMC cleavage) with ADEP; assay type: biochemical; conditions: 6 μM HsCIpP, 100 μM Ac-WLA-AMC
T2 construct: 2x(His6-thrombin)-SUMO (N, cleaved yes); made in house; host or cells: E. coli (SG1146 stated for HsClpP; 'a similar protocol' for HsClpX)
T2 sequence (Q16740 57-277 P57S): as the sequence (Q16740 57-277) above, with P1S counted along it
Protocol: The peptidase activity of purified, untagged HsCIpP was assessed by monitoring the degradation of peptidyl substrates labelled with a C-terminal 7-amido-4-methylcoumarin (AMC) fluorophore. […] To identify a suitable peptidyl substrate, commercially available AMC-labelled peptides were purchased and tested for degradation by HsCIpP. These include N-acetyl-Trp-Leu-Ala-AMC (Ac-WLA-AMC) (R&D Systems) that was also previously used by Csizmadia et (Csizmadia et al., 2016), benzyloxycarbonyl-Arg-Arg-AMC (Z-RR-AMC) (Sigma-Aldrich), N-acetyl-Leu-Glu-His-Asp-AMC […] (Sigma-Aldrich), N-acetyl-Val-Glu-Thr-Asp-AMC (Ac-VETD-AMC) (Sigma-Aldrich), and benzyloxycarbonyl-Leu-Leu-Leu-AMC (Z-LLL-AMC) (Sigma-Aldrich). Suc-LY-AMC (MP Biomedicals) was also tested as a negative control. All stock solutions of the AMC-labelled peptides were prepared by dissolving the lyophilized peptides in DMSO at 90 mM or a lower concentration recommended by the manufacturer. […] Degradation of the peptidyl substrates and subsequent release of the free AMC moiety was monitored by fluorescence with λex=360 nm and λem=440 nm using the EnSpire 2300 Multilabel Reader (Perkin-Elmer) set to perform a reading every 30 s with 20 flashes. A total of 240 readings were collected for each of three independent replicates prepared for each peptidyl substrate. […]
Initial degradation rates data were analyzed using the Hill model. […]

HEK293 cells = conditions: reported (Bram et al., 2006); cited from earlier work
HsCIpP [3] = molecular target: T2, HsCIpP; assay: Casein-FITC degradation by HsCIpP with HsCIpX titrated; assay type: biochemical; conditions: HsCIpX titrated 0 to 18 μM, 3 μM HsCIpP
Protocol: The protease activity of purified HsCIpP was assessed by monitoring the degradation of bovine milk casein labelled with fluorescein isothiocyanate (casein-FITC) (Sigma-Aldrich) in the presence of ADEP and/or purified HsCIpX. All reactions were carried out in 25 mM HEPES, pH 7.5, 35 mM KCl, 25 mM MgCl2, 0.03% Tween-20, 10% glycerol, and 1 mM DTT, supplemented with 16 mM creatine phosphate and 300 μM ATP. HsCIpP was used at 3 μM (final monomeric concentration) and casein-FITC was added at the final concentration of 10 μM. 13 U of creatine phosphokinase (Sigma-Aldrich) was also added for ATP regeneration. DMSO was present at 1% (v:v) final concentration in the experiments that involve the use of ADEP analogs. All reactions were carried out with 150 μL of the reaction mix per well in a 96-well black flat-bottom plate at 37° C. Degradation of casein-FITC and subsequent release of the free FITC moiety was monitored by fluorescence with λex=494 nm and λem=518 nm using the EnSpire 2300 Multilabel Reader set to perform a reading every 40 s with 20 flashes. A total of 100 readings were collected in each experiment.
To investigate the casein-FITC degradation by HsCIpXP, kinetic analysis was performed with HsCIpP held constant at 3 μM (final monomeric concentration) and HsCIpX was titrated from 0 to 18 μM (final monomeric concentration). Initial rates (v0) were determined from data collected over three independent experiments. Non-linear regression analysis was then performed on the initial rates data using the Hill equation, as follows: […]
Vmax is maximal velocity, h is the Hill coefficient, and K0.5 is the microscopic apparent dissociation constant.

- Hill coefficient (h) (HsCIpP [3]): 1.25
Compound: HsCIpX: the AAA+ ATPase HsCIpX, untagged human mitochondrial ClpX, partner of HsCIpP
- Vmax (HsCIpP [3]): 6.88 RFU.s^−1
- Kd (HsCIpP [3]; read-out: K0.5): 5.7 µM

- Hs RD5 [1]: 0.49
- Hs RD25 [1]: 0.87
Compound: CCCC/C=C/C(=O)N[C@@H](Cc1csc2ccccc12)C(=O)N[C@H]1COC(=O)[C@@H]2C[C@@H](C)CN2C(=O)[C@H](C)NC(=O)[C@@H]2CCCCN2C(=O)[C@@H]2CCCN2C1=O [ADEP-42] ({Heptenoyl(2E)}-[Bta]SP[Pip]A[Pro(4R-Me)]; ester 2-C)

- Hs RD25 [1]: 0.12
Compound: CCCC#CC(=O)N[C@@H](Cc1ccccc1)C(=O)N[C@H]1COC(=O)[C@@H]2CCCN2C(=O)[C@H](C)NC(=O)[C@H](C)N(C)C(=O)[C@@H]2CCCN2C1=O [ADEP-23] (X10-FSP[NMeA]AP; ester 2-C)

- Hs RD25 [1]: 0.00
Compound: C[C@@H]1C[C@H]2C(=O)OC[C@H](NC(=O)[C@@H](N)Cc3ccccc3)C(=O)N3CCC[C@H]3C(=O)N(C)[C@@H](C)C(=O)N[C@@H](C)C(=O)N2C1 [ADEP-31] (H-FSP[NMeA]A[Pro(4R-Me)]; ester 2-C)

- Hs RD25 [1]: 0.00
Compound: C[C@@H]1C[C@H]2C(=O)OC[C@H](NC(=O)[C@H](Cc3ccccc3)NC(=O)/C=C/C=C/CO)C(=O)N3CCC[C@H]3C(=O)N(C)[C@@H](C)C(=O)N[C@@H](C)C(=O)N2C1 [ADEP-36] (X11-FSP[NMeA]A[Pro(4R-Me)]; ester 2-C)

- Hs RD1 [1]: 0.69
- Hs RD5 [1]: 0.93
- Hs RD25 [1]: 0.98
Compound: CCCC/C=C/C(=O)N[C@@H](Cc1cc(F)cc(F)c1)C(=O)N[C@H]1COC(=O)[C@@H]2C[C@@H](C)CN2C(=O)[C@H](C)NC(=O)[C@@H]2C[C@@H](C)CCN2C(=O)[C@@H]2CCCN2C1=O [ADEP-30] ({Heptenoyl(2E)}-[Phe(3,5-F2)]SP[Pip(4S-Me)]A[Pro(4R-Me)]; ester 2-C)

- Hs RD1 [1]: 0.76
- Hs RD5 [1]: 0.87
- Hs RD25 [1]: 0.92
Compound: CCCC/C=C/C(=O)N[C@@H](Cc1cc(F)cc(F)c1)C(=O)N[C@@H]1C(=O)N2CCC[C@H]2C(=O)N2CCCC[C@H]2C(=O)N[C@@H](C)C(=O)N2C[C@H](C)C[C@H]2C(=O)O[C@H]1C [ADEP-29] ({Heptenoyl(2E)}-[Phe(3,5-F2)][aThr]P[Pip]A[Pro(4R-Me)]; ester 2-C)

- Hs RD25 [1]: 0.86
Compound: C/C=C/C=C/C(=O)N[C@@H](Cc1ccccc1)C(=O)N[C@H]1COC(=O)[C@@H]2CCCN2C(=O)[C@H](C)NC(=O)[C@H](C)N(C)C(=O)[C@@H]2CCCN2C1=O [ADEP-26] ({Hexadienoyl(2E,4E)}-FSP[NMeA]AP; ester 2-C)

The next lines start with the compound.

Compound: CCC/C=C/C=C/C(=O)N[C@@H](Cc1ccccc1)C(=O)N[C@H]1COC(=O)[C@@H]2C[C@@H](C)CN2C(=O)[C@H](C)NC(=O)[C@H](C)N(C)C(=O)[C@@H]2CCCN2C1=O [ADEP-04] (X1-FSP[NMeA]A[Pro(4R-Me)]; ester 2-C)
- Hs RD1 [1]: 0.32
- Hs RD5 [1]: 0.78
- Hs RD25 [1]: 1.03
- Hill coefficient (h), peptidase activity (HsCIpP [2]): 0.8

Compound: Cc1nc(N)nc(N)c1-c1ccc(Cl)c(Cl)c1 [Metoprine]
- IC50 (HEK293 cells): 800 nM

Compound: N.N.[Cl][Pt][Cl] [cisplatin]
- IC50 (HEK293 cells): 430 nM

Compound: C[C@@H]1C[C@H]2C(=O)O[C@@H](C)[C@H](NC(=O)[C@H](Cc3cc(F)cc(F)c3)NC(=O)/C=C/CC3CC3)C(=O)N3CCC[C@H]3C(=O)N3CCCC[C@H]3C(=O)N[C@@H](C)C(=O)N2C1 [ADEP-13] (X3-[Phe(3,5-F2)][aThr]P[Pip]A[Pro(4R-Me)]; ester 2-C)
- Hs RD1 [1]: 0.59
- Hs RD5 [1]: 0.91
- Hs RD25 [1]: 1.02

Compound: CCCC/C=C/C(=O)N[C@@H](Cc1cc(F)cc(F)c1)C(=O)N[C@H]1COC(=O)[C@@H]2C[C@@H](C)CN2C(=O)[C@H](C)NC(=O)[C@H](C)N(C)C(=O)[C@@H]2CCCN2C1=O [ADEP-06] ({Heptenoyl(2E)}-[Phe(3,5-F2)]SP[NMeA]A[Pro(4R-Me)]; ester 2-C)
- Hs RD1 [1]: 0.64
- Hs RD5 [1]: 0.94
- Hs RD25 [1]: 1.05

Compound: CCCCC#CC(=O)N[C@@H](Cc1ccccc1)C(=O)N[C@H]1COC(=O)[C@@H]2CCCN2C(=O)[C@H](C)NC(=O)[C@H](C)N(C)C(=O)[C@@H]2CCCN2C1=O [ADEP-12] (X9-FSP[NMeA]AP; ester 2-C)
- Hs RD25 [1]: 0.36
